“Also recorded” adds a separate entry of the source. Where two headings read alike, the source gives them in different places.
Tests used:
[1] = system: symmetrical dimethylation (S2Me) of histone H4R3 in glioma cell line U1242; assay: Symmetric dimethyl H4R3 (S2Me-H4R3) content in glioma/astrocytoma cell lines by confocal microscopy and flow cytometry; format: cell-based, human; details: for S2Me-H4R3 in astrocytoma cell lines, single agent or combined: CMP5 at 25 uM, HDAC inhibitor TSA; for H4R3 symmetric 2Me arginine methylation (S2Me): U1242, 8 hour incubation, confocal microscopy; for S2Me-H4R3 content, flow cytometric assay (FIG. 18): U1242 and U251, TSA (25 nM) and/or CMP5 (25 uM)
Description: (§1) Confocal microscopy was used with mAbs specific for symmetrical dimethylation (S2Me) of histone H4R3. Positive control for loss of PRMT5 activity was provided by treatment of U1242 cells with a PRMT5-specific siRNA used in above experiments. (B) Cell proliferation was assessed in replicate cultures incubated in DMSO and compounds 1-8.
Initial Screening experiments were performed utilizing monoclonal antibodies specific for H4R3 symmetric dimethyl arginine and confocal microscopy generated images evaluating H4R3 methylation. Controls included scrambled and SiRNA specific for PRMT5 to verify knockdown and loss of H4R3 methylation. […] Findings similar to PRMT5-specific SiRNA treatment.
Recent work reported by Pal et al has shown that PRMT5 associates with SWI/SNF chromatin remodeling complexes along with other co-repressor molecules like HDAC2. […] We utilized a flow cytometric assay to evaluate symmetric dimethyl H4R3 (S2Me-H4R3) content and confocal microscopy to verify loss of methylation status.
(§2) The biochemical association of PRMT5 and HDAC2 with repressive chromatin remodeling complexes and cooperative enzyme kinetics has been previously described. […] As a control, we utilized a flow cytometric assay to evaluate symmetric dimethyl H4R3 (S2Me-H4R3, FIG. 18) content and confocal microscopy (not shown) to verify decrease of methylation status. We used Aimexin V/PI staining and flow cytometry to examine apoptosis (below). […] We are presently performing dose response experiments to examine whether this activity can be improved. In data not shown, we can achieve similar results with lower doses of CMP5 (10 uM). […] Inhibition PRMT5 with CMP5 and HDAC enzymes (at 10 fold lower concentrations) leads to synergistic induction of apoptosis of astrocytoma cell lines.

U1242 cell line = assay: Cell proliferation of GBM cells; format: cell-based, human; details: for cell proliferation / anti proliferative activity: GBM cells (U1242), vs DMSO control
Description: as §1
Preliminary enzymatic activity assays are currently underway and will be provided as an update during submission of supplementary materials.

[2] = system: astrocytoma cell lines (U1242 and U251); assay: Apoptosis of GBM/astrocytoma cell lines (Annexin V/PI, flow cytometry); format: cell-based, human; details: single agents, not shown
From the text: (B) inhibition of migration at 12 hrs after addition of siRNA to knock down PRMT5 vs. Scramble siRNA control.
as §2

purified PRMT5 [3] = target: T1, purified PRMT5 (Homo sapiens, UniProt O14744); details: 100-500 uM CMP5, H4 substrate, 3H-SAM, 3 h at 37 C; ±7.8%, p<0.001, data not shown
T1 sequence (O14744 whole entry): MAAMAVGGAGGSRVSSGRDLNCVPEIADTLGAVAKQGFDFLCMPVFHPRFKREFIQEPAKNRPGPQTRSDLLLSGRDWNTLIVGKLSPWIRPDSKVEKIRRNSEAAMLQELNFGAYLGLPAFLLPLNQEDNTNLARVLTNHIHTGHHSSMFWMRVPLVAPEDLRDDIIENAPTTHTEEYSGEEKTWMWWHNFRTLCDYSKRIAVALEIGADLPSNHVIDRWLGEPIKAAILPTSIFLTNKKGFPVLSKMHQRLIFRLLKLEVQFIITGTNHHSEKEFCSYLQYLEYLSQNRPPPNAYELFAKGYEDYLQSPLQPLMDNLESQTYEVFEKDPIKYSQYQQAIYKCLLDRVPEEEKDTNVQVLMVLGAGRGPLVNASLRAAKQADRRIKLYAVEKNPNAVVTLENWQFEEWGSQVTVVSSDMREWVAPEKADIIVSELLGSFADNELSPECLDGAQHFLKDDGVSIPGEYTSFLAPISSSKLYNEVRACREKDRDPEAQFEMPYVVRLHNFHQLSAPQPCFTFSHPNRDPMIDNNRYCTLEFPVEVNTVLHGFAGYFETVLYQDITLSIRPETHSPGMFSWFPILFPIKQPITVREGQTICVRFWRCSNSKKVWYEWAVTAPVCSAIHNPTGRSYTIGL
T1 sequence (Q9BQA1 whole entry partner): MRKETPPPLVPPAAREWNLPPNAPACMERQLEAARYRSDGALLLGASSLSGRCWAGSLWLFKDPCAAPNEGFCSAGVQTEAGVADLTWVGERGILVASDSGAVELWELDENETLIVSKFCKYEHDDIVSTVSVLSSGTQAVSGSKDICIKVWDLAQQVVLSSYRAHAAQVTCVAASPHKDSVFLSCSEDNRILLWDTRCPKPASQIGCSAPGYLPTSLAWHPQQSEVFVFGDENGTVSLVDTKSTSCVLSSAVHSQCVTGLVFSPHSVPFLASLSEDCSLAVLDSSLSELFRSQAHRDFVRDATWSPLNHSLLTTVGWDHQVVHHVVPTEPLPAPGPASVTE
Description: The next step required studies to explore whether CMP5 was capable of selectively inhibiting a type II PRMT enzyme. Type I PRMT enzymes are involved in transcriptional activation (asymmetric dimethylation at H4R3) and type II PRMT enzymes regulates transcriptional repression (symmetric dimethylation or S2Mc at H4R3). To achieve this goal, we performed enzyme inhibition assays using purified PRMT1 (type I PRMT enz) and purified PRMT5 (type II PRMT enz). Assays were performed utilizing 2 methods. The first utilized methods described previously by Zhao et at (Nat Struct Mol Biol. 2009), where 1 ug of H4 (Roche) was used as substrate and 2 uCi of S-adenosyl-L-methyl-^3H-methionine (^3H-SAM; Amersham) as the methyl donor in the presence or absence of 100-500 uM of CMP5 was incubated in HMTase buffer for 3 h at 37° C. Reaction mixtures were spotted on Whatman P-81 filter paper and washed to remove unincorporated [^3H]SAM. Methylated peptides were detected by scintillation counting. […] The second method utilized a methyltransferase activity assay to distinguish if differential inhibitory activity of CMP5 existed against the type I PRMT1 vs. the type II enzyme PRMT. […] Fluorescently labeled SAM tracer was added followed by anti-SAM antibody that produces a change in fluorescent polarization that can be measured using a fluorescence reader.

purified PRMT1 = purified PRMT1 (Homo sapiens, UniProt Q99873); details: 100-500 uM, one hour at 37 C, 3 replicate experiments, p<0.0001
Sequence of purified PRMT1 (Q99873 whole entry, species assumed): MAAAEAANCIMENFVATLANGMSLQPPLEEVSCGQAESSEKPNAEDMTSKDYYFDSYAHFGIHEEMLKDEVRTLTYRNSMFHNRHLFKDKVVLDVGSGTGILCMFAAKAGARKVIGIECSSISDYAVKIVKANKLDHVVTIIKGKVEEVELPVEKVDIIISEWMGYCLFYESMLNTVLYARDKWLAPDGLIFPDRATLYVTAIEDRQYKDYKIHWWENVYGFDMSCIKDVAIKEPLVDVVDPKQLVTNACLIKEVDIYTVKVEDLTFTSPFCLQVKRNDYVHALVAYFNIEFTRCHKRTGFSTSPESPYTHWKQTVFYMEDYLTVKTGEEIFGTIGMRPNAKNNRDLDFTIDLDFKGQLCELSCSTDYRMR
From the text: (§3) Do achieve this, we performed enzyme inhibition assays using purified PRMT1 (a type I PRMT enzyme) and purified PRMT5 (a type II PRMT enzyme).
(§4) The next step required studies to explore whether CMP5 was capable of selectively inhibiting a type II PRMT enzyme. Type I PRMT enzymes are involved in transcriptional activation (asymmetric dimethylation at H4R3) and type II PRMT enzymes regulates transcriptional repression (symmetric dimethylation or S2Mc at H4R3). To achieve this goal, we performed enzyme inhibition assays using purified PRMT1 (type I PRMT enz) and purified PRMT5 (type II PRMT enz). Assays were performed utilizing 2 methods. The first utilized methods described previously by Zhao et at (Nat Struct Mol Biol. 2009), where 1 ug of H4 (Roche) was used as substrate and 2 uCi of S-adenosyl-L-methyl-^3H-methionine (^3H-SAM; Amersham) as the methyl donor in the presence or absence of 100-500 uM of CMP5 was incubated in HMTase buffer for 3 h at 37° C. Reaction mixtures were spotted on Whatman P-81 filter paper and washed to remove unincorporated [^3H]SAM. Methylated peptides were detected by scintillation counting. […] The second method utilized a methyltransferase activity assay to distinguish if differential inhibitory activity of CMP5 existed against the type I PRMT1 vs. the type II enzyme PRMT. The methyltransferase assay we used (Amsbio inc) utilized purified PRMT5 and PRMT1 enzyme preparations and tested for methylation of Histone H4 at arginine 3 (H4R3). SAM was incubated with a sample containing substrate H4 peptide, different concentrations of methyltransferase enzymes (PRMT5 or PRMT1), in presence or absence of CMP5 (100-500 uM) for one hour at 37° C. Fluorescently labeled SAM tracer was added followed by anti-SAM antibody that produces a change in fluorescent polarization that can be measured using a fluorescence reader.

purified PRMT5 [4] = target: T1, purified PRMT5
From the text: as §3, §4

human pure PRMT5 enzyme = human pure PRMT5 enzyme (Homo sapiens, UniProt O14744); assay: In vitro methylation assay; format: biochemical; details: FIG. 21 left
Sequence of human pure PRMT5 enzyme (O14744 whole entry): as the sequence (O14744 whole entry) above
Sequence of human pure PRMT5 enzyme (Q9BQA1 whole entry partner): as the sequence (Q9BQA1 whole entry partner) above
Description: SAM was omitted for the substrate control, and human pure PRMT5 enzyme was omitted for blank control. (right) Jeko and Mino cells were treated by 10 uM of BLL36 for 24 hr, viability was evaluated by flow cytometry.

[5] = compound 5 at 20, 30, 40, 50 and 100 uM, 48 hours

SMILES: CCn1c2ccccc2c2cc(CNCc3ccccn3)ccc21 [Compound 5]
- S2Me-H4R3 in astrocytoma cell lines, single agent or combined [1]: unchanged
- concentration of compound 5 giving loss of S2Me status of H4R3 on co-treatment with HDACi TSA ([1]; GBM cell lines, co-treated with TSA): 10 µM
- fold lower concentration of compound 5 for loss of S2Me H4R3 on co-treatment with TSA ([1]; GBM cell lines, co-treated with TSA (75, 100 nM)): > 10 fold
- H4R3 symmetric 2Me arginine methylation (S2Me) [1]: most efficacy; also recorded: best activity; also recorded: reduced; also recorded: capable of inhibiting H4R3 symmetric 2Me arginine methylation
- H4R3 symmetric 2Me arginine methylation (S2Me) ([1]; listed as CMP5): loss of symmetric dimethyl-H4R3
- S2Me-H4R3 content, flow cytometric assay (FIG. 18) [1]: no change in S2Me-H4R3
- degree of H4R3 methylation, titration [1, 5]: a dose response was seen
- concentration of CMP5 required for reduced methylation, single agent ([1]; original dose response experiments): 100 µM
- cell proliferation / anti proliferative activity (U1242 cell line): most efficacy; also recorded: reduced cell proliferation
- cell proliferation / anti proliferative activity (U1242 cell line; listed as CMP5): antiproliferative effect
- cellular proliferation (absolute cell numbers), titration (U1242 cell line; [5]): a dose response was seen
- apoptosis of GBM cell lines [2]: promote apoptosis of GBM cell lines
- reduction of methyltransferase activity (purified PRMT5 [3]): 55%
- inhibition of PRMT1 activity (purified PRMT1): not PRMT1 activity
- inhibition of PRMT1 activity (purified PRMT1; listed as CMP5): not PRMT1 enzymatic activity
- inhibition of PRMT5 activity (purified PRMT5 [4]; 100-500 uM, one hour at 37 C, 3 replicate experiments, p<0.0001): selectively inhibiting PRMT5 activity
- IC50 (purified PRMT5 [4]; lead compound of the initial screen): micromolar (uM) ranges
- concentration that decreased methyltransferase activity of PRMT5 (human pure PRMT5 enzyme): 100 µM

SMILES: CC(/C=C/C(=O)NO)=C\[C@@H](C)C(=O)c1ccc(N(C)C)cc1 [TSA, Trichostatin A, reference compound]
- S2Me-H4R3 in astrocytoma cell lines, single agent or combined [1]: unchanged
- S2Me-H4R3 content, flow cytometric assay (FIG. 18) [1]: no change in S2Me-H4R3
